Square brackets hold non-standard residues; d marks the D form. Peptide text beside a SMILES is read from it. * marks the point of attachment. pNA = O=[N+]([O-])c1ccc(N*)cc1

In assay [1] the target is T1, Plasminogen (Homo sapiens, UniProt P00747). Nature of the assay: Inhibition of plasmin (unknown origin) using H-D-Val-Leu-Lys-pNA as substrate.
In assay [2] the target is Urokinase-type plasminogen activator (Homo sapiens, UniProt P00749). Nature of the assay: Inhibition of urokinase (unknown origin) using Pyr-Glu-Gly-Arg-pNA as substrate. Particulars: for inhibition: concentration not given here.
The target in assay [3] is Trypsin (Homo sapiens, UniProt P07477+P07478+P35030). Nature of the assay: Inhibition of trypsin (unknown origin) using H-D-Phe-Pip-Arg-pNA as substrate. Type of assay: protein assay.
Assay [4] addresses T1, Plasminogen. Nature of the assay: Inhibition of plasmin (unknown origin).
The target in assay [5] is T1, Plasminogen. Nature of the assay: Inhibition of human plasmin.
The target in assay [6] is T1, Plasminogen. Nature of the assay: Inhibition of human plasmin assessed as inhibition of fibrinolysis in presence of fibrinogen.
For assay [7], the target named is T1, Plasminogen. Put plainly: Inhibition of human plasmin assessed as inhibition of fibrinogenolysis in presence of fibrinogen.
Assay [8] addresses T1, Plasminogen. Nature of the assay: Inhibition of human plasmin assessed as inhibition of amidolysis in presence of fibrinogen.

T1 sequence (P00747 97-580 limits assumed): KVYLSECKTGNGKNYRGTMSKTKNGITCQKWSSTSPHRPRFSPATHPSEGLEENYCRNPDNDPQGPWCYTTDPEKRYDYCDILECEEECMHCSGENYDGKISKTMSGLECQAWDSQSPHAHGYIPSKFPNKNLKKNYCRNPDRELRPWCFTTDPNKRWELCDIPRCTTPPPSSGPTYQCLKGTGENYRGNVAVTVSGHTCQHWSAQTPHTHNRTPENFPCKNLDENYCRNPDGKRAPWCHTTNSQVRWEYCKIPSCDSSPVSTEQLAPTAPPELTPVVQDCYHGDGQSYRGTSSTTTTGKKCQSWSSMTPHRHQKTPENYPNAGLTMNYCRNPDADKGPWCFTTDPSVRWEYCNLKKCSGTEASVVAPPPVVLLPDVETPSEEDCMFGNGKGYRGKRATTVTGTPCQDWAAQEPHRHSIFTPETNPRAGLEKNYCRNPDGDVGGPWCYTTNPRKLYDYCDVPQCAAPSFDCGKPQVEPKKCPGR
T1 sequence (P00747 581-810 limits assumed): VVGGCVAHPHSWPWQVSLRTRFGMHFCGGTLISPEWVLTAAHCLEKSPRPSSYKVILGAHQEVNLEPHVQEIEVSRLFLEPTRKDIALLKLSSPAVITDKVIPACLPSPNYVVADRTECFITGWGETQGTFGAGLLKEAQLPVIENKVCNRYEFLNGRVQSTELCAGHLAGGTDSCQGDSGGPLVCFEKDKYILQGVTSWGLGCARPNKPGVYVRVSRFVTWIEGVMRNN

The term IC50 denotes the concentration that gives 50% inhibition. The inhibition is the share of the control response that was lost under treatment. `CCCCCCCCNC(=O)[C@H](Cc1ccc(OCc2cccc(-c3ccccc3)c2)cc1)NC(=O)[C@H]1CC[C@H](CN)CC1`: the values for the IC50 in assay [1], in assay [2] and in assay [3] were 750 nM, above 100000 nM and 6700 nM, respectively. In assay [2], this compound returned an inhibition of 41%.

Turning to `CCCCCCCCNC(=O)[C@H](Cc1ccc(OCc2cccc3ccccc23)cc1)NC(=O)[C@H]1CC[C@H](CN)CC1`, the IC50 in assay [1] was 1600 nM; in assay [2] it was above 100000 nM; in assay [3], 2700 nM. The inhibition in assay [2] was 10%.

As to `CCCCCCCCNC(=O)[C@H](Cc1ccc(OCc2ccccc2C(=O)OC)cc1)NC(=O)[C@H]1CC[C@H](CN)CC1`, the values for the IC50 in assay [1], in assay [2] and in assay [3] were 1500 nM, above 200000 nM and 4800 nM, respectively. The same compound displayed an inhibition in assay [2] of 23%.

For the compound `CCCCCCCCNC(=O)[C@H](Cc1ccc(OCc2cccc(C(=O)OCC)c2)cc1)NC(=O)[C@H]1CC[C@H](CN)CC1`, the IC50 in assay [1] is 510 nM; in assay [2], above 50000 nM; in assay [3], 2700 nM. In addition, in assay [2], the inhibition amounted to 7%.

Consider `CCCCCCCCNC(=O)[C@H](Cc1ccc(OCc2ccc(C(=O)O)cc2)cc1)NC(=O)[C@H]1CC[C@H](CN)CC1`, for which the figures for the IC50 in assay [1], in assay [2] and in assay [3] were 2700 nM, above 100000 nM and 4700 nM, respectively. For the same compound, the inhibition in assay [2] turned out to be 22%.

In the case of `CCCCCCCCNC(=O)[C@H](Cc1ccc(OC(C)(C)C)cc1)NC(=O)[C@H]1CC[C@H](CN)CC1`, the values for the concentration for half-maximal inhibition (IC50) in assay [1], in assay [2] and in assay [3] were 17000 nM, above 100000 nM and 380 nM, respectively. In assay [2], the inhibition amounted to 17%.

Compound `CC[C@@H](C)[C@@H](N)C(=O)N[C@@H](Cc1ccc(OCc2ccncc2)cc1)C(=O)N[C@H](C#N)CCCCN` came in with a half-inhibitory concentration (IC50) in assay [4] of 11000 nM.

For `CCCCCCCCNC(=O)[C@H](Cc1ccc(OCc2cccc3cccnc23)cc1)NC(=O)[C@H]1CC[C@H](CN)CC1`, the 50% inhibitory concentration (IC50) in assay [1] is 340 nM; in assay [2], above 100000 nM; in assay [3], 930 nM. Further, the inhibition in assay [2] was 24%.

On to `CCCCCCCCNC(=O)[C@H](Cc1ccc(OCc2cccc(C(=O)O)c2)cc1)NC(=O)[C@H]1CC[C@H](CN)CC1`, for which the IC50 in assay [1] was 530 nM; in assay [2], above 50000 nM; in assay [3], 2000 nM. The compound also had an inhibition in assay [2] of 13%.

Turning to `CC[C@@H](C)[C@@H](N)C(=O)N[C@@H](Cc1ccc(OCc2cccc(OCc3ccncc3)c2)cc1)C(=O)N[C@H](C#N)CCCCN`, the IC50 in assay [4] amounted to 7700 nM.

As for `CCCCCCCCNC(=O)[C@H](Cc1ccc(OCc2ccccc2)cc1)NC(=O)[C@H]1CC[C@H](CN)CC1`, the IC50 in assay [1] was 1700 nM; in assay [2], above 100000 nM; in assay [3], 2200 nM. In assay [2], this compound had an inhibition of 0%.

Turning to `CC(C)C[C@H](NC(=O)[C@H](N)C(C)C)C(=O)N[C@@H](CCCCN)C(=O)Nc1ccc([N+](=O)[O-])cc1` (H-[dV]-Leu-Lys-pNA), it took 530 nM to reach half-maximal inhibition in assay [5] (IC50).

For `CCCCCCCCNC(=O)[C@H](Cc1ccc(OCc2ccc(C(=O)OCC)cc2)cc1)NC(=O)[C@H]1CC[C@H](CN)CC1`, the concentration for half-maximal inhibition (IC50) in assay [1] is 490 nM; in assay [2], above 200000 nM; in assay [3], 6100 nM. This compound registered an inhibition in assay [2] of 40%.

Take `CCCCCCCCNC(=O)[C@H](Cc1ccc(OCc2cccc(C(F)(F)F)c2)cc1)NC(=O)[C@H]1CC[C@H](CN)CC1`: the IC50 in assay [1] was 600 nM; in assay [2] it was above 100000 nM; in assay [3], 2500 nM. This compound also displayed an inhibition in assay [2] of 12%.

As for `CCCCCCCCNC(=O)[C@H](Cc1ccc(OCc2cccc([N+](=O)[O-])c2)cc1)NC(=O)[C@H]1CC[C@H](CN)CC1`, the figures for the IC50 in assay [1], in assay [2] and in assay [3] were 680 nM, above 100000 nM and 2100 nM, respectively. In assay [2], the inhibition came to 13%.

Usually Ki stands for the dissociation constant of the complex between target and ligand, obtained from inhibition or displacement. With `CCCCCCNC(=O)[C@H](Cc1ccc(OCc2cccnc2)cc1)NC(=O)c1ccc(CN)cc1`, the 50% inhibitory concentration (IC50) in assay [6] amounted to 2900 nM; in assay [7], 4500 nM. In addition, the inhibition constant (Ki) in assay [8] was determined as 2900 nM.

Turning to `CCCCCCCCNC(=O)[C@H](Cc1ccc(O)cc1)NC(=O)[C@H]1CC[C@H](CN)CC1`, the values for the IC50 in assay [1], in assay [2] and in assay [3] were 67000 nM, 62000 nM and 1000 nM, respectively.

`CCCCCCCCNC(=O)[C@H](Cc1ccc(OCc2ccc(C(F)(F)F)cc2)cc1)NC(=O)[C@H]1CC[C@H](CN)CC1`: the IC50 in assay [1] was 960 nM; in assay [2], above 100000 nM; in assay [3], 6900 nM. The compound also came in with an inhibition in assay [2] of 6%.

With `CCCCCCCCNC(=O)[C@H](Cc1ccc(OCc2cccc(N)c2)cc1)NC(=O)[C@H]1CC[C@H](CN)CC1`, the IC50 in assay [1] was 860 nM; in assay [2], above 100000 nM; in assay [3], 860 nM. In assay [2], this compound had an inhibition of 31%.

`CCCCCCCCNC(=O)[C@H](Cc1ccc(OCc2ccc3ccccc3c2)cc1)NC(=O)[C@H]1CC[C@H](CN)CC1`: the IC50 in assay [1] is 710 nM; in assay [2], above 100000 nM; in assay [3], 4400 nM. The inhibition in assay [2] came out at 23%.

Regarding `CCCCCCCCNC(=O)[C@H](Cc1ccc(OCc2ccncc2)cc1)NC(=O)[C@H]1CC[C@H](CN)CC1`, the IC50 in assay [1] was found to be 530 nM; in assay [2] it was 5300 nM; in assay [3], 1100 nM.

`CCCCCCCCNC(=O)[C@H](Cc1ccc(OCc2ccccc2C(F)(F)F)cc1)NC(=O)[C@H]1CC[C@H](CN)CC1`: the values for the IC50 in assay [1], in assay [2] and in assay [3] were 3000 nM, above 100000 nM and 4600 nM, respectively. For the same compound, the inhibition in assay [2] came out at 5%.

Regarding `CCCCCCCCNC(=O)[C@H](Cc1ccc(OCc2cccc(OCc3ccncc3)c2)cc1)NC(=O)[C@H]1CC[C@H](CN)CC1`, the IC50 is 970 nM in assay [1], above 50000 nM in assay [2] and 1300 nM in assay [3]. Also, the inhibition in assay [2] was found to be 36%.

`CCCCCCCCNC(=O)[C@H](Cc1ccc(OCc2ccc3ccccc3n2)cc1)NC(=O)[C@H]1CC[C@H](CN)CC1`: the IC50 in assay [1] amounted to 220 nM; in assay [2], 77000 nM; in assay [3], 1400 nM.

Source of the values: ChEMBL document CHEMBL3751846, “Active site-directed plasmin inhibitors: Extension on the P2 residue” (Bioorg Med Chem, 2016).
